This is an account of results in patent publication US20240376113A1 (Volastra Therapeutics, Inc., priority 2020, published 2024).

SMILES strings stand for the structures.

One test deals with ENPP-1 ECD (Homo sapiens (Human), UniProt P22413). As to the kind of experiment: Inhibition of ENPP1 hydrolysis of 2′,3′-cGAMP (Assay 1). The settings on record: read-out: Assay 1 KI; 2,3-cGAMP 24 μM, AMP-Glo luminescence, KI from IC50 via Cheng/Prusoff.
In test [1] the target is ENPP1 on MDA-MB-231 cells (Homo sapiens (Human), UniProt P22413). The test can be described thus: Inhibition of ENPP1 hydrolysis of AMP p-nitrophenyl ester on MDA-MB-231 cells (Assay 2). The test is classed as cell-based. The settings on record: pNP-AMP 0.25 mM, MDA-MB-231 cells, 37° C. 3 h, KI,app from IC50 via Cheng/Prusoff; read-out: Assay 2 KI, app. The protocol:
Inhibition of ENPP1 Hydrolysis of AMP p-Nitrophenyl Ester on MDA-MB-231 Cells (Assay 2)
ENPP1 is normally expressed on the human metastatic breast cancer cell line MDA-MB-231. Hydrolysis of the p-nitrophenyl ester of AMP (pNP-AMP), an isostere of ATP, is selectively catalyzed by ENPP1 in the supernatant of MDA-MB-231 cell cultures. Inhibition of the hydrolysis of pNP-AMP by MDA-MB-231 at pH 7.4 and 37° C. is a good model of physiologically relevant activity of membrane-bound ENPP1 at disease-relevant expression levels.
MDA-MB-231 cells were harvested using TypLE Express Enzyme digestion and suspended in 100 μL of Leibovitz's L-15 Medium, 20% FBS, seeding the cells in a 96-well assay plate with 4.5×10^4 cells/well. Cells were incubated at 37 C with 1% CO2 for 24 h. In a separate dilution plate, 2× of top dose of compound was prepared in phenol-red free 1640 medium without FBS and then 1:3 serial diluted in the same medium. The cell culture medium of L15 medium was aspirated carefully and cells were washed with PBS once, and 50 μL per well of test compound or DMSO blank are added to the assay plate. Substrate mix (50 μL; 0.5 mM pNP-AMP in phenol-red free 1640 media without FBS) was added for a pNP-AMP final concentration of 0.25 mM. The system was incubated at 37° C. for 3 h.

Chain of ENPP1 on MDA-MB-231 cells (P22413 whole entry): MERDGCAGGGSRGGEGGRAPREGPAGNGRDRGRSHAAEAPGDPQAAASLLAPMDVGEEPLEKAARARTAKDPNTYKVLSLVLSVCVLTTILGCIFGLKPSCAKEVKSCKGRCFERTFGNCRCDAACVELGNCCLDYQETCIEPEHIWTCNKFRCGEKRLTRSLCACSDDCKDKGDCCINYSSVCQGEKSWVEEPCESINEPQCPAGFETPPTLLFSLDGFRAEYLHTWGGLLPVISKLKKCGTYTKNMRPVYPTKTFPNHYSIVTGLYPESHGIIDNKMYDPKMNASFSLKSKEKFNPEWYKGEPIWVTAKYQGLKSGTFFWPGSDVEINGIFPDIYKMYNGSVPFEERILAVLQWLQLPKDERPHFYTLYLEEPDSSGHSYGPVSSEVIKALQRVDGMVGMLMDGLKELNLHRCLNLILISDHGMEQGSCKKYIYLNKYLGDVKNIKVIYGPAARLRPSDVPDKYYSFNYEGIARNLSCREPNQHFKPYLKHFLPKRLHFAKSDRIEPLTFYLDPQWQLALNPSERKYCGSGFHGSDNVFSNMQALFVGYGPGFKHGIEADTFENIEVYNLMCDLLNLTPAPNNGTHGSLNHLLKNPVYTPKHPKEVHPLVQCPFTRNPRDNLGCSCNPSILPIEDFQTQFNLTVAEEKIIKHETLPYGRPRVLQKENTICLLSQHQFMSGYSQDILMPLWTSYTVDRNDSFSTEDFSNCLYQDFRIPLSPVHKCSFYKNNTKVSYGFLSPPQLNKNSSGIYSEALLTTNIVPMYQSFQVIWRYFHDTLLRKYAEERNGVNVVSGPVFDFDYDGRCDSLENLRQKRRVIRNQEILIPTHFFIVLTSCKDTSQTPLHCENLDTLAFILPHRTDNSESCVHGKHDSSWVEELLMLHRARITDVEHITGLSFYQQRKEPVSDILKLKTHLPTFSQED
Chain of ENPP-1 ECD (P22413 98-925): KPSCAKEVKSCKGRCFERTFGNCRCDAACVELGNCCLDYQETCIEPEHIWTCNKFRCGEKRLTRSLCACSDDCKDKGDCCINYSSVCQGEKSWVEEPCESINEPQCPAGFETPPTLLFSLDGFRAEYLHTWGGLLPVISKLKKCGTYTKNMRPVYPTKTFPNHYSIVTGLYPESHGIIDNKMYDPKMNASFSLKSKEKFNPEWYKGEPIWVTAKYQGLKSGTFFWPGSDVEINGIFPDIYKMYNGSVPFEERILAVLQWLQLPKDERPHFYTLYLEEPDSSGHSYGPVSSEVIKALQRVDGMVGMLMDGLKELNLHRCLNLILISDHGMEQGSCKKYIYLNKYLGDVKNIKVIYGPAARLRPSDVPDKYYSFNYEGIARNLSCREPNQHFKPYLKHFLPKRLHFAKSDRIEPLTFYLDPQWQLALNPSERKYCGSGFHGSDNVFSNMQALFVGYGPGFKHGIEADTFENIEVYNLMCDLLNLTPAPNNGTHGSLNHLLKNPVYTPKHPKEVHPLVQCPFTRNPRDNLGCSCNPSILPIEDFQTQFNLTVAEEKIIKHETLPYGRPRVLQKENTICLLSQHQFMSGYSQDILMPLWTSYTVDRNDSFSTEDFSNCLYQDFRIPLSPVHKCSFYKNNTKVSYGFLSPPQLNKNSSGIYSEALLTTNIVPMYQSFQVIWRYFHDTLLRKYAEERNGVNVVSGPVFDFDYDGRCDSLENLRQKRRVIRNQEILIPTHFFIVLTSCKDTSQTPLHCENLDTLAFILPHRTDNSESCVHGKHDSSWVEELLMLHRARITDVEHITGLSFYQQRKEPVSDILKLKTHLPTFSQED
Description for ENPP-1 ECD: Test compounds were plated in a 3× dilution scheme in a 384 well plate.

Take `COc1nc2ncnn2c(N(C)C)c1Cc1ccc([S@@](C)(=N)=O)cc1` [Compound 88a]: the Ki came out at 0.00586 nM at ENPP-1 ECD and 0.222 nM in test [1].
